Read-outs that look alike come from different tables or passages of the source.
Tests used:
Mäusen = assay: Acute toxicity (orientating), single oral dose in mice; settings: in vivo, po, 300 mg/kg
Experimental: (§1) Die akute Toxizität der zu untersuchenden Substanzen wurde orientierend an Gruppen von je 10 Mäusen nach oraler Gabe einer Einzeldosis von 300 mg/kg bestimmt (Beobachtungszeit: 14 Tage): […]

[1] = as above; settings: mouse, in vivo, read-out: Orientierend akute Toxizität
Experimental: as §1

[2] = mice, groups of 10, single oral dose of 300 mg/kg, observation time 14 days

Compound | Tieren gestorben (Mäusen) | LD50 at 336 h [1, 2] | LD50 at 336 h ([1]; po, 300 mg/kg)
COC(=O)COc1ccc(-c2nc3ncncc3[nH]2)c(OC)c1 [Substanz B, 8-(2-Methoxy-4-methoxycarbonylmethoxyphenyl)-purin] | 0 von 10 | > 300 mg/kg | –
COc1cc(OCC#N)ccc1-c1nc2cncnc2[nH]1 [Substanz C, 8-(2-Methoxy-4-cyanmethoxyphenyl)-purin] | > 300 mg/kg (O von 10 Tieren gestorben) | – | > 300 mg/kg
C#CCOc1ccc(-c2nc3ncncc3[nH]2)c(OC)c1 [Substanz A, 8-(2-Methoxy-4-propargyloxyphenyl)-purin] | 0 von 10 | > 300 mg/kg | –
